Measured values published in US20100094026A1, “METHOD OF SCREENING COMPOUND USEFUL IN TREATING ALLERGIC DISEASE” (REVERSE PROTEOMICS RESEARCH INSTITUTE CO., LTD., priority 2005, published 2010).
Counter-ions that a name gives are not always drawn.

Target: T1, Standard Human Vimentin (Homo sapiens, UniProt P08670)
T1 construct: purchased PROGEN Biotechnik 62015
Assay: Measurement of Kd value between Vimentin and Intal with Biacore (SPR)
Type: binding
Conditions: SPR on Biacore3000; Intal PEG amine immobilized on CM5 chip; Vimentin 0.29 nM to 4.6 μM infused for 5 min
Procedure: Intal PEG amine synthesized as above was immobilized to Biacore CM5 chip (#BR-1000-14), according to a method described in BIAapplications Handbook (published by Biacore).
Control data was obtained by using a chip to which 2-ethanolamine was immobilized by the same way.
As Vimentin, Standard Human Vimentin (cat. No. 62015) purchased from PROGEN Biotechnik was subjected to buffer exchange by Running buffer(0.25 M Sucrose, 25 mM Tris-HCl pH7.5, 0.3 mM sodium N,N-diethyldithiocarbamate, 25 mM urea, 1 mM calcium chloride) and used to measure Kd.
The measurement of Kd was performed by SPR (surface plasmon resonance) spectrum measurement on Biacore3000 (Biacore). The above-mentioned Running buffer was run through the Intal-immobilized CM5 chip prepared by the above-mentioned procedure at 20 μl per min. Thereto, each sample which was prepared by gradually diluting the Vimentin prepared by the above-mentioned procedure (0.29 nM to 4.6 μM) was infused for 5 min., and the obtained SPR spectrum was analyzed by BIAevaluation software Ver.

T1 sequence (P08670 whole entry): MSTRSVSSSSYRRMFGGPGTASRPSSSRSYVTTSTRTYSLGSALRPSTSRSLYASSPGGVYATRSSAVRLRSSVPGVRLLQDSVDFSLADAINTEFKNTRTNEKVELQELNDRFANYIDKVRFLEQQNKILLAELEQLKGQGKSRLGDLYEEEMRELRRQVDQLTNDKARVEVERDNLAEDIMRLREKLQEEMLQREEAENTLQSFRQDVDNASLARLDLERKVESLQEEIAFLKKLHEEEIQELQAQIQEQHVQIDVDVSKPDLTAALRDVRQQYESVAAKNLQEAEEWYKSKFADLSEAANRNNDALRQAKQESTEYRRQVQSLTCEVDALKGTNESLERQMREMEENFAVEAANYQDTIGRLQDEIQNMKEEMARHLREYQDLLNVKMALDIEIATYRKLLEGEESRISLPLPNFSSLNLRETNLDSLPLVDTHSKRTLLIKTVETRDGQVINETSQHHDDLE

Compound: O=C(O)c1cc(=O)c2c(OCC(O)COc3cccc4oc(C(=O)O)cc(=O)c34)cccc2o1 [Intal, disodium salt of 1,3-bis(2-carboxychromon-5-yloxy)-2-hydroxypropane]
- Kd: 0.056 µM
